Peptide text beside a SMILES is read from it.
Key:
[1] = biological target: T1, human amylin 3(a) receptor (human calcitonin receptor + RAMP-3), BHK570 cells (Homo sapiens, UniProt O60896+P30988); test: Assay (II)b functional CRE-luciferase assay without albumin, human amylin receptor; format: cell-based; conditions: Tested without HSA; read-out: hAmylin-R funct. EC50
T1 construct: host or cells: BHK570
Source text: (§1) Assay(II)b—Human Calcitonin and Amylin Receptor Assay without Albumin
(§2) 1. Luciferase Assay Outline
(§3) Activation of calcitonin and amylin (co-expression of calcitonin receptor and receptor activity modifying proteins (RAMP)) receptors lead to increased intracellular concentrations of cAMP. Consequently, transcription is activated by promoters containing multiple copies of the cAMP response element (CRE). It is thus possible to measure amylin activity by the use of a CRE luciferase reporter gene introduced into BHK cells also expressing calcitonin or amylin receptors.
(§4) 2. Construction of Calcitonin (a)—and Amylin 3(a)—Receptor/CRE-Luc Cell Line.
(§5) A BHK570 cell line was stably transfected with the human calcitonin receptor and a CRE-responsive luciferase reporter gene (Hollex-1 cell line, obtained from ZymoGenetics described in U.S. Pat. No. 5,622,839). The cell line was further transfected with RAMP-3, using standard methods. This turns the calcitonin receptor into an amylin 3(a) receptor. Methotrexate, Neomycin, and Hygromycin are selection markers for luciferase, the calcitonin receptor, and RAMP-3, respectively. To prepare the batches of frozen cells used in the luciferase assay described in the section below, the cells were cultured in growth medium (DMEM with 10% FBS, 1% Pen/Strep and 1 mM Napyruvate). […] Cells at approximately 80-90% confluence were washed with PBS and loosened from the plates with Versene. After centrifugation (2 min, 1300 rpm, in a Centrion Scientific centriuge C2 series with a BRK 5510 rotor head), the cell pellet was dissolved in 10% DMSO, 30% FBS and 60% growth medium and frozen (−80° C.) until utilization.
(§6) The day before the experiment, BHK calcitonin (a) receptor- or amylin 3(a)-receptor/CRE-luc cells were thawed, washed twice, and seeded in 40 μl growth medium on white 384 well culture plates (4.000 cells/well). On the assay day, the cells were washed 3 times in assay media (Dulbecco media W/o phenol red, 500 ml (Gibco, 11880-028); 0.1% ovalbumin; 10 mM Hepes pH 7.4; 1× Glutamin; 1% Pen/Strep). Then, 30 μl/well of sample diluted in assay buffer was added. After 3 hours of incubation at 37° C. and 5% CO2, the reaction was terminated by adding 30 μl/well SteadyLite Plus™. The plates were shaken at 300 rpm for 5 min at RT. Then, the plates were sealed and incubated at room temperature for 30 minutes. Finally, luminescence was tested on a TopCounter (Packard) in SPC (single photon counting) mode.
(§7) Additional Comment Regarding Use of Data Retrieved Via this Method
(§8) For the same reasons, measurements made in Assay IIa should not be compared in Assay IIb.

[2] = biological target: T2, human amylin receptor (human calcitonin receptor + human RAMP3), BHK tk'ts 13 cells (Homo sapiens, UniProt O60896+P30988); test: Assay (Va) binding to the human amylin receptor (whole cell); conditions: read-out: hAmylin-R binding IC50
T2 construct: expressed in transfected cells; host or cells: BHK tk'ts 13
Procedure: The day before the assay the cells were Seeded into Poly-D-Lysin coated 384W Opaque White, BD BioCoat plates (10000 cells/well) and Incubated overnight at 37° C., 5% CO2, 95% humidity.

[3] = biological target: T3, human calcitonin (a) receptor, BHK570 cells (Homo sapiens, UniProt P30988); test: Assay (II)b functional CRE-luciferase assay without albumin, human calcitonin receptor; format: cell-based; conditions: Tested without HSA; read-out: hCTR funct. EC50
T3 construct: host or cells: BHK570
T3 sequence (P30988 25-474): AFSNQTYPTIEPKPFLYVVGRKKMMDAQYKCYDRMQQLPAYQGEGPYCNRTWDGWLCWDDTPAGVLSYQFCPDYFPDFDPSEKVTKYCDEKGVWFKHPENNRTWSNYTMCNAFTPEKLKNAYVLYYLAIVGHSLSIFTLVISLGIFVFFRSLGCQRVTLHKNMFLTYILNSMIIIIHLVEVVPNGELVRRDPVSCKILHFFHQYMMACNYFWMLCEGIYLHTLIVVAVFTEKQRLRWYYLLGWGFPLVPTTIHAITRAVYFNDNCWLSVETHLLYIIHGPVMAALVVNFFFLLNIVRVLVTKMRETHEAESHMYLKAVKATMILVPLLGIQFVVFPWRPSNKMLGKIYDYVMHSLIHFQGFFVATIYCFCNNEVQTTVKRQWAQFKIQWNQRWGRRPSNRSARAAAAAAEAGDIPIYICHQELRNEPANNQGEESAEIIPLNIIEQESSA
Source text: as §1, §2, §3, §4, §5, §6, §7, §8

T1 sequence (O60896 24-148, one chain of several): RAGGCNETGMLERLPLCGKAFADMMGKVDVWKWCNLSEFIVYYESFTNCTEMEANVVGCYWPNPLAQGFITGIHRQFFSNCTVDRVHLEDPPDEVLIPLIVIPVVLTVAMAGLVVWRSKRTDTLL
T2 sequence (O60896 24-148, one chain of several): as above

Compound | EC50 [1] [pM] | IC50 [2] [pM] | EC50 [3] [pM]
CC(C)C[C@H](NC(=O)[C@H](CCC(=O)O)NC(=O)[C@H](Cc1c[nH]cn1)NC(=O)[C@H](CC(C)C)NC(=O)[C@H](CCC(=O)O)NC(=O)[C@H](C)NC(=O)[C@H](CO)NC(=O)[C@H](CC(C)C)NC(=O)[C@H](CCCNC(=N)N)NC(=O)CNC(=O)[C@H](CC(C)C)NC(=O)[C@@H](NC(=O)[C@H](C)NC(=O)[C@@H](NC(=O)[C@@H](NC(=O)[C@H](CC(C)C)NC(=O)[C@H](CCC(=O)O)NC(=O)[C@H](CO)NC(=O)[C@H](C)N)[C@@H](C)O)[C@@H](C)O)C(C)C)C(=O)N[C@@H](C)C(=O)N[C@H](C(=O)N[C@@H](CC(C)C)C(=O)N1CCC[C@H]1C(=O)N[C@@H](CCCNC(=N)N)C(=O)N[C@H](C(=O)N[C@@H](CCC(=O)O)C(=O)N[C@H](C(=O)NCC(=O)N[C@H](C(=O)NCC(=O)N[C@H](C(=O)N1CCC[C@H]1C(N)=O)[C@@H](C)O)[C@@H](C)O)[C@@H](C)O)[C@@H](C)O)[C@@H](C)O [95bb, H—ASELTTAVLGRLSAELHELATLPRTETGTGTP—NH2] (H-ASELTTAVLGRLSAELHELATLPRTETGTGTP-NH2) | 46 | 20200 | 9
CC(C)C[C@H](NC(=O)[C@H](CCC(=O)O)NC(=O)[C@H](Cc1c[nH]cn1)NC(=O)[C@H](CC(C)C)NC(=O)[C@H](CCC(=O)O)NC(=O)[C@H](C)NC(=O)[C@H](CO)NC(=O)[C@H](CC(C)C)NC(=O)[C@H](CCCNC(=N)N)NC(=O)CNC(=O)[C@H](CC(C)C)NC(=O)[C@@H](NC(=O)[C@H](C)NC(=O)[C@@H](NC(=O)[C@H](CO)NC(=O)[C@@H](NC(=O)[C@H](CCC(=O)O)NC(=O)[C@H](CO)NC(=O)[C@H](C)N)C(C)C)[C@@H](C)O)C(C)C)C(=O)N[C@@H](C)C(=O)N[C@H](C(=O)N[C@@H](CC(C)C)C(=O)N1CCC[C@H]1C(=O)N[C@@H](CCCNC(=N)N)C(=O)N[C@H](C(=O)N[C@@H](CCC(=O)O)C(=O)N[C@H](C(=O)NCC(=O)N[C@@H](CO)C(=O)NCC(=O)N[C@@H](CO)C(=O)N1CCC[C@H]1C(N)=O)[C@@H](C)O)[C@@H](C)O)[C@@H](C)O [86bb, H—ASEVSTAVLGRLSAELHELATLPRTETGSGSP—NH2] (H-ASEVSTAVLGRLSAELHELATLPRTETGSGSP-NH2) | 7 | 982 | 2
CC(C)C[C@H](NC(=O)CNC(=O)[C@H](CO)NC(=O)[C@H](C)N)C(=O)N[C@@H](CO)C(=O)N[C@H](C(=O)N[C@@H](C)C(=O)N[C@H](C(=O)N[C@@H](CC(C)C)C(=O)NCC(=O)N[C@@H](CCCNC(=N)N)C(=O)N[C@@H](CC(C)C)C(=O)N[C@@H](CO)C(=O)N[C@@H](CCC(N)=O)C(=O)N[C@@H](CCC(=O)O)C(=O)N[C@@H](CC(C)C)C(=O)N[C@@H](Cc1c[nH]cn1)C(=O)N[C@@H](CCC(=O)O)C(=O)N[C@@H](CC(C)C)C(=O)N[C@@H](CCC(N)=O)C(=O)N[C@H](C(=O)N[C@@H](Cc1ccc(O)cc1)C(=O)N1CCC[C@H]1C(=O)N[C@@H](CCCNC(=N)N)C(=O)N[C@H](C(=O)N[C@@H](CCC(=O)O)C(=O)N[C@H](C(=O)NCC(=O)N[C@@H](CO)C(=O)NCC(=O)N[C@H](C(=O)N[C@@H](Cc1ccc(O)cc1)C(N)=O)[C@@H](C)O)[C@@H](C)O)[C@@H](C)O)[C@@H](C)O)C(C)C)[C@@H](C)O [118bb, [des1, 4G, 9V, 15Q, 21Q, 23Y, 30S, 31G, 32T, 33Y]mimylin] | 8 |  | 4
CC(C)C[C@H](NC(=O)CNC(=O)[C@H](CO)NC(=O)[C@H](C)N)C(=O)N[C@@H](CO)C(=O)N[C@H](C(=O)N[C@@H](C)C(=O)N[C@H](C(=O)N[C@@H](CC(C)C)C(=O)NCC(=O)N[C@@H](CCCNC(=N)N)C(=O)N[C@@H](CC(C)C)C(=O)N[C@@H](CO)C(=O)N[C@@H](CCC(N)=O)C(=O)N[C@@H](CCC(=O)O)C(=O)N[C@@H](CC(C)C)C(=O)N[C@@H](Cc1c[nH]cn1)C(=O)N[C@@H](CCC(=O)O)C(=O)N[C@@H](CC(C)C)C(=O)N[C@@H](CCC(N)=O)C(=O)N[C@H](C(=O)N[C@@H](Cc1ccc(O)cc1)C(=O)N1CCC[C@H]1C(=O)N[C@@H](CCCNC(=N)N)C(=O)N[C@H](C(=O)N[C@@H](CCC(=O)O)C(=O)N[C@H](C(=O)NCC(=O)N[C@@H](CO)C(=O)NCC(=O)N[C@H](C(=O)N[C@@H](Cc1ccc(O)cc1)C(N)=O)[C@@H](C)O)[C@@H](C)O)[C@@H](C)O)[C@@H](C)O)[C@@H](C)O)[C@@H](C)O [124bb, [des1, 4G, 9T, 15Q, 21Q, 23Y, 30S, 31G, 32T, 33Y]mimylin] (H-ASGLSTATLGRLSQELHELQTYPRTETGSGTY-NH2; N-terminus and C-terminus assumed) | 5 |  | 4
CC(C)C[C@H](NC(=O)CNC(=O)[C@H](CO)NC(=O)[C@@H](N)CC(C)C)C(=O)N[C@@H](CO)C(=O)N[C@H](C(=O)N[C@@H](C)C(=O)N[C@H](C(=O)N[C@@H](CC(C)C)C(=O)NCC(=O)N[C@@H](CCCNC(=N)N)C(=O)N[C@@H](CC(C)C)C(=O)N[C@@H](CO)C(=O)N[C@@H](CCC(N)=O)C(=O)N[C@@H](CCC(=O)O)C(=O)N[C@@H](CC(C)C)C(=O)N[C@@H](Cc1c[nH]cn1)C(=O)N[C@@H](CCC(=O)O)C(=O)N[C@@H](CC(C)C)C(=O)N[C@@H](CCC(N)=O)C(=O)N[C@H](C(=O)N[C@@H](Cc1ccc(O)cc1)C(=O)N1CCC[C@H]1C(=O)N[C@@H](CCCNC(=N)N)C(=O)N[C@H](C(=O)N[C@@H](CCC(=O)O)C(=O)N[C@H](C(=O)NCC(=O)N[C@@H](CO)C(=O)N[C@@H](CCC(N)=O)C(=O)N[C@H](C(=O)N[C@@H](Cc1ccc(O)cc1)C(N)=O)[C@@H](C)O)[C@@H](C)O)[C@@H](C)O)[C@@H](C)O)C(C)C)[C@@H](C)O [127bb, H—LSGLSTAVLGRLSQELHELQTYPRTETGSQTY—NH2] (H-LSGLSTAVLGRLSQELHELQTYPRTETGSQTY-NH2) | 11 | 1180 | 6
CC(C)C[C@H](NC(=O)[C@H](CCCNC(=N)N)NC(=O)CNC(=O)[C@H](CC(C)C)NC(=O)[C@@H](NC(=O)[C@H](C)NC(=O)[C@@H](NC(=O)[C@@H](NC(=O)[C@H](CC(C)C)NC(=O)[C@H](CCC(=O)O)NC(=O)[C@H](CO)NC(=O)[C@H](C)N)[C@@H](C)O)[C@@H](C)O)C(C)C)C(=O)N[C@@H](CCC(=O)O)C(=O)N[C@@H](C)C(=O)N[C@@H](CCC(=O)O)C(=O)N[C@@H](CC(C)C)C(=O)N[C@@H](Cc1c[nH]cn1)C(=O)N[C@@H](CCC(=O)O)C(=O)N[C@@H](CC(C)C)C(=O)N[C@H](C(=O)N[C@H](C(=O)N[C@@H](CC(C)C)C(=O)N1CCC[C@H]1C(=O)N[C@@H](CCCNC(=N)N)C(=O)N[C@H](C(=O)N[C@@H](CCC(=O)O)C(=O)N[C@H](C(=O)NCC(=O)N[C@H](C(=O)NCC(=O)N[C@H](C(=O)N1CCC[C@H]1C(N)=O)[C@@H](C)O)[C@@H](C)O)[C@@H](C)O)[C@@H](C)O)[C@@H](C)O)[C@@H](C)O [106bb, H—ASELTTAVLGRLEAELHELTTLPRTETGTGTP—NH2] (H-ASELTTAVLGRLEAELHELTTLPRTETGTGTP-NH2) |  | 71400 | 
